# Results as given in PubChem BioAssay (NCI).
#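 A five-concentration, 48-hour dose response in 96-well plates underlies each endpoint, interpolated linearly between surrounding concentrations. GI50 marks 50% less growth. TGI: total growth inhibition.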
# How the values were obtained:
# Assay in all cases: NCI-60 cell line screen, 48 h
# CCRF-CEM leukemia = tested on: CCRF-CEM leukemia
# UO-31 renal = tested on: UO-31 renal
# UACC-62 melanoma = tested on: UACC-62 melanoma
# HL-60(TB) leukemia = tested on: HL-60(TB) leukemia
# HOP-62 NSCLC = tested on: HOP-62 NSCLC
# UACC-257 melanoma = tested on: UACC-257 melanoma
# NCI-H460 lung = tested on: NCI-H460 lung
# MDA-MB-231 breast = tested on: MDA-MB-231 breast
# A549 NSCLC = tested on: A549 NSCLC
# U251 CNS = tested on: U251 CNS
SMILES,TGI (CCRF-CEM leukemia),TGI (UO-31 renal),TGI (UACC-62 melanoma),TGI (HL-60(TB) leukemia),TGI (HOP-62 NSCLC),TGI (UACC-257 melanoma),TGI (NCI-H460 lung),TGI (MDA-MB-231 breast),TGI (A549 NSCLC),TGI (U251 CNS),GI50 (CCRF-CEM leukemia),GI50 (UO-31 renal),GI50 (UACC-62 melanoma),GI50 (HL-60(TB) leukemia),GI50 (HOP-62 NSCLC),GI50 (UACC-257 melanoma),GI50 (NCI-H460 lung),GI50 (MDA-MB-231 breast),GI50 (A549 NSCLC),GI50 (U251 CNS)
CCOC(=O)c1cc([N+](=O)[O-])c(Sc2ncnc3nc[nH]c23)c([N+](=O)[O-])c1,4.39 µM,7.08 µM,11.9 µM,23.4 µM,24.8 µM,20.6 µM,25.6 µM,19.5 µM,55.6 µM,22.8 µM,–,–,–,–,–,–,–,–,–,–
C[C@@H](c1ccccc1)N1CO[C@@]2(C#Cc3ccc4c(c3)OCO4)CCC[C@@H]12,> 100 µM,28.1 µM,> 100 µM,> 100 µM,29.3 µM,38.2 µM,26 µM,28.2 µM,29.6 µM,28.1 µM,–,–,–,–,–,–,–,–,–,–
Nc1ncnc2c1ccn2-c1cccc(NC(=O)c2ccc(N3CCOCC3)c(C(F)(F)F)c2)c1,11.8 µM,6.73 µM,5.78 µM,8.07 µM,15.5 µM,22.1 µM,9.33 µM,10.9 µM,15.2 µM,6.44 µM,2.07 µM,2.8 µM,1.99 µM,3.17 µM,3.62 µM,4.99 µM,2.92 µM,2.47 µM,3.41 µM,2.41 µM
CCOC(=O)CC1Nc2ccccc2C12CCc1c([nH]c3ccccc13)C2C(=O)OCC (configuration not stated),> 100 µM,> 100 µM,> 100 µM,53.8 µM,> 100 µM,> 100 µM,> 100 µM,> 100 µM,> 100 µM,> 100 µM,–,–,–,–,–,–,–,–,–,–
Cc1cccc(-c2nc(-c3cnccn3)n(Cc3ccccc3)n2)c1,> 100 µM,> 100 µM,> 100 µM,> 100 µM,> 100 µM,> 100 µM,> 100 µM,> 100 µM,> 100 µM,> 100 µM,–,–,–,–,–,–,–,–,–,–
Nc1ccc(C2SCC(=O)N2NS(=O)(=O)c2cccc(C(=O)O)c2)cc1 (configuration not stated),> 100 µM,> 100 µM,> 100 µM,> 100 µM,> 100 µM,> 100 µM,> 100 µM,> 100 µM,> 100 µM,> 100 µM,–,–,–,–,–,–,–,–,–,–
NS(=O)(=O)c1ccc(NC(=O)c2ccc3nc4ccccc4c(Nc4ccc(S(N)(=O)=O)cc4)c3c2)cc1,> 100 µM,> 100 µM,> 100 µM,> 100 µM,> 100 µM,> 100 µM,> 100 µM,> 100 µM,> 100 µM,> 100 µM,–,–,–,–,–,–,–,–,–,–
C#CCn1c(=O)ccn(/C(=C/C(=O)OCC)C(=O)OCC)c1=O,6.35 µM,25.3 µM,27.8 µM,> 52.9 µM,31.8 µM,29.6 µM,10.3 µM,40.9 µM,34.9 µM,35.4 µM,–,–,–,–,–,–,–,–,–,–
N=c1oc2cc(O)ccc2cc1C(=O)Nc1cccc2ccccc12,> 20.4 µM,19.9 µM,14.3 µM,10.7 µM,> 44 µM,41.2 µM,30.2 µM,10.1 µM,23.2 µM,12.4 µM,–,–,–,–,–,–,–,–,–,–
COC(=O)C1Cc2cc3c(cc2C1)CCC3,> 100 µM,> 100 µM,> 100 µM,> 100 µM,> 100 µM,> 100 µM,> 100 µM,> 100 µM,> 100 µM,> 100 µM,–,–,–,–,–,–,–,–,–,–
C=CCOCn1cnc2c(=O)[nH]c(N)nc21,> 100 µM,> 100 µM,> 100 µM,> 100 µM,> 100 µM,–,> 100 µM,> 100 µM,> 100 µM,> 100 µM,–,–,–,–,–,–,–,–,–,–
COc1ccc2nc3cc(Cl)ccc3c(NCCCCCC(=O)NC(COc3ccc4ccc5cccnc5c4n3)COc3ccc4ccc5cccnc5c4n3)c2c1,10.5 µM,10.7 µM,56.4 µM,27.2 µM,> 100 µM,42.8 µM,19.1 µM,36.2 µM,50.1 µM,26.7 µM,–,–,–,–,–,–,–,–,–,–
CC(C)C(/C=C/c1ccc(Cl)cc1)=N\NC(=O)N/N=C(/C=C/c1ccc(Cl)cc1)C(C)C,> 100 µM,> 100 µM,> 100 µM,> 100 µM,47.3 µM,> 100 µM,54.8 µM,49.4 µM,41.5 µM,30.6 µM,–,–,–,–,–,–,–,–,–,–
S=C1NNC2(C(=S)N1)c1ccccc1-c1ccccc12,> 10 µM,> 10 µM,> 10 µM,> 10 µM,> 10 µM,> 10 µM,> 10 µM,> 10 µM,> 10 µM,> 10 µM,–,–,–,–,–,–,–,–,–,–
c1ccc2c(c1)-c1ccccc1C2NC1=NCCO1,> 100 µM,50.7 µM,38.9 µM,48.5 µM,46.5 µM,–,27.1 µM,56 µM,> 100 µM,> 100 µM,–,–,–,–,–,–,–,–,–,–
CCCCCCCCCCCCCCCC(=O)OC1C(O)C(O)C(O)C(O)C12CO2 (configuration not stated),41.1 µM,> 100 µM,> 100 µM,45.7 µM,> 100 µM,> 100 µM,> 100 µM,> 100 µM,> 100 µM,39.2 µM,–,–,–,–,–,–,–,–,–,–
C/C(=N\O)c1cccc(Nc2c3ccccc3nc3occc23)c1,> 100 µM,> 100 µM,49.1 µM,> 100 µM,17.5 µM,> 100 µM,> 100 µM,> 100 µM,58.5 µM,> 100 µM,–,–,–,–,–,–,–,–,–,–
OCC1OC(n2cnc3c(Cl)nc(Nc4ccc(Cl)c(Cl)c4)nc32)CC1O (configuration not stated),18.1 µM,31.4 µM,17.2 µM,16.4 µM,23 µM,20 µM,16.8 µM,23.5 µM,> 50 µM,23.8 µM,–,–,–,–,–,–,–,–,–,–
COC(=O)c1c2c(cc3c1CC1(C3)Cc3cc4c(c(C(=O)OC)c3C1)CCC4)CCC2,> 100 µM,28.4 µM,> 100 µM,> 100 µM,> 100 µM,> 100 µM,–,> 100 µM,> 100 µM,> 100 µM,–,–,–,–,–,–,–,–,–,–
O=C1OC(c2ccccc2Br)=N/C1=C/c1ccccc1,> 100 µM,> 100 µM,> 100 µM,> 100 µM,49.4 µM,> 100 µM,> 100 µM,89.8 µM,> 100 µM,69.7 µM,–,–,–,–,–,–,–,–,–,–
O=c1c2cc([N+](=O)[O-])ccc2n2n1CCCCC2,> 100 µM,> 100 µM,> 100 µM,> 100 µM,> 100 µM,> 100 µM,> 100 µM,> 100 µM,> 100 µM,> 100 µM,–,–,–,–,–,–,–,–,–,–
